For three compounds, Activity results are on record in ChEMBL document CHEMBL1155170, “Rapid dissemination and diversity of CTX-M extended-spectrum beta-lactamase genes in commensal Escherichia coli isolates from healthy children from low-resource settings in Latin America” (2007).

For assay [1], the system named is Escherichia coli. In words: Antimicrobial activity against CTX-M extended-spectrum beta-lactamase producing commensal Escherichia coli isolates from healthy children assessed as percent resistant isolates by disc diffusion method. The class given is functional. (In general: A growth-free zone around the sample is the usual read-out of agar diffusion tests.)
The test system of assay [2] is Escherichia coli. In words: Antimicrobial activity against CTX-M-15 extended-spectrum beta-lactamase producing commensal Escherichia coli isolates from healthy children assessed as percent resistant isolates by disc diffusion method. The class given is functional.

In the case of `CCn1cc(C(=O)O)c(=O)c2ccc(C)nc21` [NALIDIXIC ACID], the figures for the Activity in the assay with Escherichia coli [1] and in the assay with Escherichia coli [2] were 57% and 93%, respectively. For `O=C(O)c1cn(C2CC2)c2cc(N3CCNCC3)c(F)cc2c1=O` [CIPROFLOXACIN], in that order: 54% and 93%. As to `CN(C)[C@@H]1C(O)=C(C(N)=O)C(=O)[C@@]2(O)C(O)=C3C(=O)c4c(O)cccc4[C@@](C)(O)[C@H]3C[C@@H]12` [TETRACYCLINE], the Activity in the assay with Escherichia coli [1] was found to be 86%.
